Results: BindingDB's records for doi:10.7270/Q21V5CG8 (Burnham Center For Chemical Genomics, 2011)

Target: T1, Cysteine protease ATG4B (Homo sapiens, UniProt Q9Y4P1)
T1 sequence (Q9Y4P1 whole entry): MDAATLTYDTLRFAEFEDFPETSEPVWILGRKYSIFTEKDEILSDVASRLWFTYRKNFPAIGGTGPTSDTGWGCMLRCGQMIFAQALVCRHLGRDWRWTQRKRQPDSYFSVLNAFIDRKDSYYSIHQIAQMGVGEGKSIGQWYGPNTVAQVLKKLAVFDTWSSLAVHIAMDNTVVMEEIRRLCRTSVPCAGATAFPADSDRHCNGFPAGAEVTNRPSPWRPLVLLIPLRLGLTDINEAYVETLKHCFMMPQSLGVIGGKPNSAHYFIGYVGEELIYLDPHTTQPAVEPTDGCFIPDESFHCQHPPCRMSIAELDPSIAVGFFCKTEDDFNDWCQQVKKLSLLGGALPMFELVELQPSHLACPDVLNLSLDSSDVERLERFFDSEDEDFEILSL
Assay: autophagin-1 cysteine protease inhibition – biochemical, fluorescence, set 2, dose response (AID 588584)

Row | IC50 | SMILES
1 | 22.8 µM | CC1=CC(/C=N/n2c(COc3ccccc3)nc3ccccc3c2=O)C(=O)C([N+](=O)[O-])=C1 (stereo not drawn) [3-[[(E)-(3-methyl-5-nitro-6-oxocyclohexa-2,4-dien-1-ylidene)methyl]amino]-2-(phenoxymethyl)quinazolin-4-one]
2 | 30.6 µM | Cc1ccc(NC2=NC(=O)C(=Cc3c(C)[nH]c4ccccc34)S2)cc1 [5-[(2-methyl-1H-indol-3-yl)methylene]-2-[(4-methylphenyl)imino]-1,3-thiazolidin-4-one]
3 | 5.4 µM | Oc1ccc2ccccc2c1CN=Nc1nnc(-c2ncc[nH]2)c2ccccc12 [SMR000151639]
